Values of other authors as cited in patent publication US20050244462A1, “Devices and methods for treating a mammalian eye” (Allergan, Inc., priority 2004, published 2005).

Details: steroidal anti-inflammatory efficacy in vivo; 25 mg hydrocortisone equivalent to 1 mg dexamethasone; Goodman and Gilman 8th ed. p. 1447

C[C@]12CCC(=O)C=C1CC[C@@H]1[C@@H]2[C@@H](O)C[C@@]2(C)[C@H]1CC[C@]2(O)C(=O)CO [hydrocortisone]
potency relative to dexamethasone: approximately twentyfivefold less potent than dexamethasone
